In patent US11820729B2 (Johnson & Johnson Consumer Inc., priority 2014, dated 2023):

Key:
[1] = test system: 16-hour salivary biofilm on pellicle coated hydroxyapatite pegs; assay: Prevention assay: prevention of bacterial attachment to pellicle coated hydroxyapatite pegs, ATP bioluminescence; type: cell-based; details: for prevention of bacterial attachment in alcohol free full formulations: Table 15 formulations, water as the only solvent; for prevention of bacterial attachment in alcohol-free full formulations: Table 17 formulations, water and propylene glycol as solvents; for ability to prevent bacterial attachment / preventing bacterial attachment the best: simple solution solvent base formulas (Table 11)
Method: The formulations in Examples 2-4, 6, 8 and 9 were prepared and test for prevention of bacterial attachment using the prevention assay. In this assay hydroxyapatite-coated polystyrene peg plate (96 pegs, N=8 per group) was exposed to saliva for one minute to form a pellicle at a temperature of 35 C. Then, for each formulation, eight pegs (N=8) were pre-treated for ten minutes with the formulation using an orbital shaker set to 500 RPM at room temperature. As a negative control, eight pegs (N=8) were pre-treated for ten minutes with sterile water. Next, a 16-hour salivary biofilm was grown on these polystyrene peg plates at a temperature of 35 C.
After all treatments were complete, the biofilm from each peg was neutralized and rinsed. The biofilm was harvested via sonication using a Q-Sonica Q700 Ultrasonic Liquid Processor with 431MP4-00 microplate horn Damper and 0.5:1 reverse gain booster (Q-Sonica, Newtown, Conn.). Using a Celsis Rapid Detection RapiScreen kit (Celsis International PLC, Chicago, Ill.), the bacteria were lysed with Celsis Luminex and then the adenosine triphosphate (ATP) from the lysed bacteria was measured using the bioluminescence marker Celcis Luminate and a Centro LB 960 Microplate Luminometer supplied by Berthold Technologies (Wildbad, Germany). Data were reported in log RLU (relative light units) where decreasing log RLUs indicated fewer viable bacteria remained on the biofilm substrate. The log RLUs for the prevention assay are shown on Tables 2, 4, 6, 10, 14, and 16.

S. mutans biofilm = assay: S. mutans single species kill assay (in-vitro biofilm model); type: cell-based; details: simple solution formulas (Table 13), 30 second treatment
Method: The formulations listed in Example 7 were prepared and tested using an in-vitro single species S. mutans biofilm model. A 24-hour S. mutans biofilm is grown on a polystyrene peg plate (96 pegs, N=6 per test group). The pegs were subsequently treated for thirty seconds with each of formulations H and I, as well as positive and negative controls. The treatment is applied as a single thirty (30) second treatment. The positive control is a commercially available essential oil mouth rinse. The negative control is sterile water. After treatment the biofilm is neutralized and rinsed. The biofilm is harvested via sonication using a Misonix Ultrasonic Liquid Processor (Farmingdale, N.Y.). Using a Celsis Rapid Detection RapiScreen kit (Celsis International PLC, Chicago), the bacteria are lysed with Celsis Luminex and then the adenosine triphosphate (ATP) from the lysed bacteria is measured using the bioluminescence marker LB960 Microplate Luminometer supplied by Berthold (Wildbad, Germany). Data are reported in log RLU (relative light units) where decreasing log RLUs indicates fewer viable bacteria remaining on the biofilm substrate.

[2] = HPLC quantification of compound remaining after storage at 50° C.; type: physicochemical; details: storage at 50° C. for 4 and 8 weeks (Table 13 formulas)
Method: Briefly, formulations containing either LAE or any of the 26 compounds and standards are diluted into a solution of 50% acetonitrile and 50% water. They are evaluated on an Agilent HPLC using a Zorbax ion exchange column. In the method, 10 uL of the sample is withdrawn and ran through the HPLC with a 40% potassium phosphate (molarity at pH 3.0) 60% acetonitrile mobile phase. […] The molecule peak is auto integrated using the Online Agilent HPLC software. Comparisons are made to the standard to identify the % of compound remaining following storage.

Row | structural stability via HPLC in simple solution formulations [2] | Compound | prevention of bacterial attachment in alcohol free full formulations [1] | prevention of bacterial attachment in alcohol-free full formulations [1] | ability to prevent bacterial attachment [1] | preventing bacterial attachment the best [1] | log reduction in S. mutans (S. mutans biofilm)
1 |  | CCCCCCCC(=O)NC(CCCNC(=N)N)C(=O)NC (centres unmarked) [Compound 1, [amino({[4-(methylcarbamoyl)-4-octanamidobutyl]amino})methylidene]azanium] | Prevent Bacterial Attachment | Prevent Bacterial Attachment | have the ability to prevent bacterial attachment | preventing bacterial attachment the best | do not Result in More than a One Log Reduction in S. mutans
2 | significant decrease in peak area | CCCCCCCC(=O)NC(CCCNC(=N)N)C(=O)NCC (centres unmarked) [Compound 2, [amino({[4-(ethylcarbamoyl)-4-octanamidobutyl]amino})methylidene]azanium] | Prevent Bacterial Attachment | Prevent Bacterial Attachment | have the ability to prevent bacterial attachment | preventing bacterial attachment the best | do not Result in More than a One Log Reduction in S. mutans
3 |  | CCCCCCCC(=O)NC(CCCNC(=N)N)C(=O)NCCCCCC (centres unmarked) [Compound 3, [amino({[4-(hexylcarbamoyl)-4-octanamidobutyl]amino})methylidene]azanium] | Prevent Bacterial Attachment | Prevent Bacterial Attachment | have the ability to prevent bacterial attachment | preventing bacterial attachment the best | do not Result in More than a One Log Reduction in S. mutans
4 |  | CCCCCCCCCCCC(=O)NC(CCCNC(=N)N)C(=O)NC (centres unmarked) [Compound 6] | Prevent Bacterial Attachment | Prevent Bacterial Attachment | have the ability to prevent bacterial attachment | preventing bacterial attachment the best | do not Result in More than a One Log Reduction in S. mutans
5 |  | CCCCCCCCCCCCCCCCCC(=O)NC(CCCNC(=N)N)C(=O)NC (centres unmarked) [Compound 7] |  |  |  |  | do not Result in More than a One Log Reduction in S. mutans
6 |  | CCCCCCCCCCCC(=O)NC(CCCCN)C(=O)NCC (centres unmarked) [Compound 11, N-[5-amino-1-(ethylcarbamoyl)pentyl]dodecanamide] | Prevent Bacterial Attachment | Prevent Bacterial Attachment | have the ability to prevent bacterial attachment |  | do not Result in More than a One Log Reduction in S. mutans
7 |  | CCCCCCCCCCCC(=O)NC(CCCN)C(=O)NCC (centres unmarked) [Compound 12, N-[4-amino-1-(ethylcarbamoyl)butyl]dodecanamide] | Prevent Bacterial Attachment | Prevent Bacterial Attachment | have the ability to prevent bacterial attachment | preventing bacterial attachment the best | do not Result in More than a One Log Reduction in S. mutans
8 |  | CCCCCCCCCCCC(=O)NC(COP(=O)(O)O)C(=O)NCC (centres unmarked) [Compound 16, 2-dodecanamido-3-(ethylamino)-3-oxopropyl dihydrogen phosphate] |  |  | have the ability to prevent bacterial attachment |  | 
9 |  | CCCCCCCCCCCC(=O)NC(CCCN)C(=O)NCCCCCC (centres unmarked) [Compound 17, N-(5-amino-1-(hexylamino)-1-oxopentan-2-yl)dodecanamide] |  |  | have the ability to prevent bacterial attachment | preventing bacterial attachment the best | 
10 |  | CCCCCCCCCCCNC(=O)C(CCCN)NC(=O)CCCCCCC (centres unmarked) [Compound 18, N-(5-amino-1-oxo-1-(undecylamino)pentan-2-yl)octanamide] |  |  | have the ability to prevent bacterial attachment | preventing bacterial attachment the best | 
11 |  | CCCCCCCCNC(=O)C(CCCN)NC(=O)CCCCCCC (centres unmarked) [Compound 19, N-(5-amino-1-(octylamino)-1-oxopentan-2-yl)octanamide] |  |  | have the ability to prevent bacterial attachment | preventing bacterial attachment the best | 
12 |  | CCCCCCCCCCCCCC(=O)NC(CCCNC(=N)N)C(=O)NCC (centres unmarked) [Compound 20, N-(1-(ethylamino)-5-guanidino-1-oxopentan-2-yl)tetradecanamide] |  |  | have the ability to prevent bacterial attachment |  | 
13 |  | CCCCCCCCNC(=O)C(CCCNC(=N)N)NC(=O)CCCCCCC (centres unmarked) [Compound 21, N-(5-guanidino-1-(octylamino)-1-oxopentan-2-yl)octanamide] |  |  | have the ability to prevent bacterial attachment | preventing bacterial attachment the best | 
14 |  | CCCCCCCCCCCC(=O)NC(CCCNC(=N)N)C(=O)NCCCCCCCC (centres unmarked) [Compound 22, N-(5-guanidino-1-(octylamino)-1-oxopentan-2-yl)dodecanamide] |  |  | have the ability to prevent bacterial attachment | preventing bacterial attachment the best | 
15 |  | CCCCCCCCCCCC(=O)NC(CCCNC(=N)N)C(=O)NCCCCCCCCCC (centres unmarked) [Compound 23, N-(1-(decylamino)-5-guanidino-1-oxopentan-2-yl)dodecanamide] |  |  | have the ability to prevent bacterial attachment |  | 
16 |  | CCCCCCCCCC(=O)NC(CCCNC(=N)N)C(=O)NCC (centres unmarked) [Compound 24, N-(1-(ethylamino)-5-guanidino-1-oxopentan-2-yl)decanamide] |  |  | have the ability to prevent bacterial attachment |  | 
17 |  | CCCCCCCCCCCNC(=O)C(CCCNC(=N)N)NC(=O)CCCCCCCCCCC (centres unmarked) [Compound 25, N-(5-guanidino-1-oxo-1-(undecylamino)pentan-2-yl)dodecanamide] |  |  | have the ability to prevent bacterial attachment |  | 
18 |  | CCCCCCCCCCCNC(=O)C(CCCNC(=N)N)NC(=O)CCCCCCC (centres unmarked) [Compound 26, N-(5-guanidino-1-oxo-1-(undecylamino)pentan-2-yl)octanamide] |  |  | have the ability to prevent bacterial attachment | preventing bacterial attachment the best | 
19 |  | [amino({[4-dodecanamido-4-(methylcarbamoyl)butyl]amino})methylidene]azanium [Compound 4] |  |  | have the ability to prevent bacterial attachment |  | do not Result in More than a One Log Reduction in S. mutans
